According to patent publication US4895589A, “Heterocyclic compounds” (Imperial Chemical Industries PLC, priority 1985, dated 1990):

Columns and labels:
Rice = experiment: Intermediate Retardant Test, rice; type: in vivo, Rice (Ishikari); conditions: Oryza sativa, 672 h, ~28 days, Table VII, read-out: Percentage Reduction in Height of Rice (Compared to formulation blank)
Method in brief: (§1)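 Overall spray at 1000 ppm and 4000 ppm (1 and 4 kg ha^-1, 1000 l/ha), giving foliar plus root exposure; rice in flooded paddy pots, barley and apples in 4" pots. Height measured ~28 days after treatment (ligule for cereals, apex for apples), reported as % reduction versus formulation blank.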

Wheat = conditions: WW, 4000 ppm, 2-3 weeks
Maize = conditions: MZ, 4000 ppm, 2-3 weeks
Description: (§2) The compounds were tested for plant growth regulator activity against up to tweleve plant species for various growth effects relevant to plant growth regulation.
(§3) Each chemical was applied at 4000 ppm (4 kg/ha in a 1000 l/ha field volume) using a tracksprayer and a SS8004E (Teejet) nozzle.
(§4) After spray, the plants were grown in a glasshouse with 25° C. day/22° C. night temperatures and supplementary lighting was supplied when necessary (from mercury vapour lamps), to provide a 16 hour photoperiod. The exception to this were the temperate cereals, wheat and barley, which were grown in 16° C. day 13° C. night temperatures
(§5) After 2-3 weeks in the glasshouse, depending on the time of year, the plants were visually assessed for morphological characteristics. Formulations blanks were used as controls to assess the Plants.

Spring Barley = experiment: Intermediate Retardant Test, spring barley; type: in vivo, Spring Barley (Atem/kym); conditions: Hordeum vulgare, 672 h, ~28 days, Table VIII, read-out: Percentage Reduction in Height of Spring Barley (Compared to formulation blank)
Method in brief: as §1

Apples = experiment: Intermediate Retardant Test, apples; type: in vivo, Apples (Red Delicious); conditions: 672 h, ~28 days, Table IX, read-out: Percentage Reduction in Height of Apples (Compared to formulation blank)
Method in brief: as §1

Sugar beet = conditions: SB, 4000 ppm, 2-3 weeks
Description: as §2, §3, §4, §5

Tomato = conditions: TO, 4000 ppm, 2-3 weeks
Description: as §2, §3, §4, §5

Cynosurus cristatus = conditions: CC, 4000 ppm, 2-3 weeks
Lettuce = conditions: LT, 4000 ppm, 2-3 weeks
Description: as §2, §3, §4, §5

Soya = conditions: SY, 4000 ppm, 2-3 weeks
Description: as §2, §3, §4, §5

Barley = conditions: BR, 4000 ppm, 2-3 weeks
Description: as §2, §3, §4, §5

Dacrylis glomerata = conditions: DA, 4000 ppm, 2-3 weeks
Description: as §2, §3, §4, §5

Agrostis tenius = conditions: AT, 4000 ppm, 2-3 weeks
Description: as §2, §3, §4, §5

[1] = test system: plant species of Whole Plant Screen (1) or (2); experiment: Across screen comparison: total retardation relative to paclobutrazol (Whole Plant Screens (1) and (2)); type: in vivo; conditions: compounds of Table I, Table X
Method in brief: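 Compounds, each tested in Whole Plant Screen (1) or (2), are compared by summing retardation scores over all species tested. Each total is expressed as a percentage of the total retardation from paclobutrazol, the standard run in every test.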

Vines = conditions: VN, 4000 ppm, 2-3 weeks
Description: as §2, §3, §4, §5

Radish = conditions: RA, 4000 ppm, 2-3 weeks
Description: as §2, §3, §4, §5

CCCCC#CC(Cn1cncn1)(OC)C(C)(C)C (stereo not drawn) [Compound 2]
Percent reduction in rice plant height vs formulation blank at 1000 ppm (Rice): 17.4% | Percent reduction in rice plant height vs formulation blank at 4000 ppm (Rice): 34.6% | Retardation score (1-3) with greening (G), apical damage (A), tillering/side shooting (T) (Wheat): 2G | Retardation score (1-3) with greening (G), apical damage (A), tillering/side shooting (T) (Maize): 2GA | height reduction vs blank at 1000 ppm (Spring Barley): 0.2% | height reduction vs blank at 4000 ppm (Spring Barley): 25.6% | percent reduction in plant height vs formulation blank at 4000 ppm (Apples): 12.3% | Retardation score (1-3) with greening (G), apical damage (A), tillering/side shooting (T) (Sugar beet): 1G | Retardation score (1-3) with greening (G), apical damage (A), tillering/side shooting (T) (Tomato): 1G | Retardation score (1-3) with greening (G), apical damage (A), tillering/side shooting (T) (Cynosurus cristatus): 1G | Retardation score (1-3) with greening (G), apical damage (A), tillering/side shooting (T) (Lettuce): 1 (10-30% retardation) | Retardation score (1-3) with greening (G), apical damage (A), tillering/side shooting (T) (Soya): 3GT

CCCCCC#CC(O)(Cn1cncn1)C(C)(C)C (stereo not drawn) [Compound 3, 2,2-dimethyl-3-hydroxy-3-(hept-1-yne-1-yl)-4-(1,2,4-triazol-1-yl)-butane]
Percent reduction in rice plant height vs formulation blank at 1000 ppm (Rice): 21.2% | Percent reduction in rice plant height vs formulation blank at 4000 ppm (Rice): 40.8% | Retardation score (1-3) with greening (G), apical damage (A), tillering/side shooting (T) (Wheat): 2GT | Retardation score (1-3) with greening (G), apical damage (A), tillering/side shooting (T) (Maize): 1G | Retardation score (1-3) with greening (G), apical damage (A), tillering/side shooting (T) (Barley): 1T | Retardation score (1-3) with greening (G), apical damage (A), tillering/side shooting (T) (Dacrylis glomerata): 2G | height reduction vs blank at 1000 ppm (Spring Barley): 18.5% | height reduction vs blank at 4000 ppm (Spring Barley): 34.7% | Retardation score (1-3) with greening (G), apical damage (A), tillering/side shooting (T) (Agrostis tenius): 2G | percent reduction in plant height vs formulation blank at 1000 ppm (Apples): 9.5% | percent reduction in plant height vs formulation blank at 4000 ppm (Apples): 25.9% | Retardation score (1-3) with greening (G), apical damage (A), tillering/side shooting (T) (Sugar beet): 1G | Retardation score (1-3) with greening (G), apical damage (A), tillering/side shooting (T) (Tomato): 2G | Total Retardation expressed as a percentage of the total retardation caused by paclobutrazol [1]: 65.6 % of paclobutrazol | Retardation score (1-3) with greening (G), apical damage (A), tillering/side shooting (T) (Cynosurus cristatus): 2G | Retardation score (1-3) with greening (G), apical damage (A), tillering/side shooting (T) (Soya): 3GA | Retardation score (1-3) with greening (G), apical damage (A), tillering/side shooting (T) (Vines): 2GAT | Retardation score (1-3) with greening (G), apical damage (A), tillering/side shooting (T) (Radish): 3 (61-100% retardation)

CC(C)CCC#CC(O)(Cn1cncn1)C(C)(C)C (stereo not drawn) [Compound 8, 2,2-dimethyl-3-hydroxy-3-(5-methyl-hex-1-yne-1-yl)-4-(1,2,4-triazol-1-yl)-butane]
Percent reduction in rice plant height vs formulation blank at 1000 ppm (Rice): 26.6% | Percent reduction in rice plant height vs formulation blank at 4000 ppm (Rice): 47.7% | Retardation score (1-3) with greening (G), apical damage (A), tillering/side shooting (T) (Wheat): 3GT | Retardation score (1-3) with greening (G), apical damage (A), tillering/side shooting (T) (Maize): 1G | Retardation score (1-3) with greening (G), apical damage (A), tillering/side shooting (T) (Barley): 1T | Retardation score (1-3) with greening (G), apical damage (A), tillering/side shooting (T) (Dacrylis glomerata): 1G | height reduction vs blank at 1000 ppm (Spring Barley): 39.6% | height reduction vs blank at 4000 ppm (Spring Barley): 65.8% | Retardation score (1-3) with greening (G), apical damage (A), tillering/side shooting (T) (Agrostis tenius): 1G | percent reduction in plant height vs formulation blank at 1000 ppm (Apples): 7.5% | percent reduction in plant height vs formulation blank at 4000 ppm (Apples): 26% | Retardation score (1-3) with greening (G), apical damage (A), tillering/side shooting (T) (Tomato): 2G | Total Retardation expressed as a percentage of the total retardation caused by paclobutrazol [1]: 60.0 % of paclobutrazol | Retardation score (1-3) with greening (G), apical damage (A), tillering/side shooting (T) (Cynosurus cristatus): 2G | Retardation score (1-3) with greening (G), apical damage (A), tillering/side shooting (T) (Lettuce): 1G | Retardation score (1-3) with greening (G), apical damage (A), tillering/side shooting (T) (Soya): 3G | Retardation score (1-3) with greening (G), apical damage (A), tillering/side shooting (T) (Vines): 1 (10-30% retardation) | Retardation score (1-3) with greening (G), apical damage (A), tillering/side shooting (T) (Radish): 3G
